The record followed here is patent US10676443B2, “Method for producing (4S)-4-[4-cyano-2-(methylsulfonyl)phenyl]-3,6-dimethyl-2-oxo-1-[3-(trifluoromethyl)phenyl]-1,2,3,4-tetrahydro pyrimidine-5-carbonitrile” (pH Pharma Co., Ltd., priority 2015, dated 2020).

The data set is described as follows: stability of crystal form (A) on storage, even at high humidity. The data set is classed as physicochemical. The conditions noted are these: solid crystal form (A).

With `CC1=C(C#N)[C@@H](c2ccc(C#N)cc2S(C)(=O)=O)N(C)C(=O)N1c1cccc(C(F)(F)F)c1` [crystal form (A), (S)-4-[4-cyano-2-(methylsulfonyl)phenyl]-3,6-dimethyl-2-oxo-1-[3-(trifluoromethyl)phenyl]-1,2,3,4-tetrahydropyrimidine-5-carbonitrile], under “even at high humidity”, the stability properties result is given as “very good”. Moreover, the “storage time with no loss of stability” value (storage) is “more than 3 years”.
